In the NIST ThermoML archive (doi:10.1021/je025651k):
Numbers after ± are expanded uncertainties.

Tests used:
[1] = refractive index (Na D-line) (dimensionless); settings: 298.15 K, 101.33 kPa, Liquid
[2] = Liquid; for mass density: 298.15 K, 101.33 kPa

CCC(=O)CC [pentan-3-one]
refractive index ([1]; Standard Abbe refractometry): 1.39 ± 0.0006 | vapor or sublimation pressure ([2]; 290 K): 3.42 ± 0.51 kPa | mass density ([2]; Vibrating tube method): 809.43 ± 0.11 kg/m3 | vapor or sublimation pressure ([2]; 309.9 K): 9.21 ± 0.54 kPa | vapor or sublimation pressure ([2]; 320 K): 14.22 ± 0.57 kPa | vapor or sublimation pressure ([2]; 330.6 K): 22.33 ± 0.61 kPa | vapor or sublimation pressure ([2]; 341.4 K): 33.64 ± 0.66 kPa | vapor or sublimation pressure ([2]; 350.4 K): 46.5 ± 0.73 kPa | vapor or sublimation pressure ([2]; 361.3 K): 66.6 ± 0.83 kPa | vapor or sublimation pressure ([2]; 367.5 K): 82.09 ± 0.9 kPa | vapor or sublimation pressure ([2]; 371 K): 90.18 ± 0.95 kPa | vapor or sublimation pressure ([2]; 371.5 K): 91.82 ± 0.95 kPa | vapor or sublimation pressure ([2]; 374.75 K): 101.32 ± 1 kPa | vapor or sublimation pressure ([2]; 375.2 K): 102.52 ± 1 kPa

CCCC(C)=O [pentan-2-one]
refractive index ([1]; Abbe refractometer): 1.3881 | mass density ([2]; vibrating tube): 801.47 kg/m3 | vapor or sublimation pressure ([2]; 329.8 K): 20.44 ± 0.6 kPa | vapor or sublimation pressure ([2]; 336.3 K): 26.55 ± 0.63 kPa | vapor or sublimation pressure ([2]; 342.1 K): 33.04 ± 0.66 kPa | vapor or sublimation pressure ([2]; 347.2 K): 39.99 ± 0.69 kPa | vapor or sublimation pressure ([2]; 351.5 K): 46.57 ± 0.73 kPa | vapor or sublimation pressure ([2]; 355.5 K): 53.47 ± 0.76 kPa | vapor or sublimation pressure ([2]; 358.9 K): 59.95 ± 0.79 kPa | vapor or sublimation pressure ([2]; 362 K): 66.61 ± 0.83 kPa | vapor or sublimation pressure ([2]; 365 K): 73.28 ± 0.86 kPa | vapor or sublimation pressure ([2]; 367.7 K): 79.91 ± 0.89 kPa | vapor or sublimation pressure ([2]; 370.3 K): 86.76 ± 0.93 kPa | vapor or sublimation pressure ([2]; 372.6 K): 93.11 ± 0.96 kPa | vapor or sublimation pressure ([2]; 375 K): 100.06 ± 1 kPa | vapor or sublimation pressure ([2]; 375.09 K): 101.32 ± 1 kPa | vapor or sublimation pressure ([2]; 377.2 K): 106.83 ± 1 kPa | vapor or sublimation pressure ([2]; 379.3 K): 113.61 ± 1.1 kPa | vapor or sublimation pressure ([2]; 381.2 K): 120.11 ± 1.1 kPa | vapor or sublimation pressure ([2]; 383 K): 126.54 ± 1.1 kPa | vapor or sublimation pressure ([2]; 384.8 K): 133.92 ± 1.2 kPa

CCC(O)CC [3-pentanol]
refractive index ([1]; Abbe refractometer): 1.4087 | vapor or sublimation pressure ([2]; 293.8 K): 0.84 ± 0.5 kPa | mass density ([2]; vibrating tube): 815.5 kg/m3 | vapor or sublimation pressure ([2]; 300.8 K): 1.33 ± 0.5 kPa | vapor or sublimation pressure ([2]; 308 K): 2.11 ± 0.51 kPa | vapor or sublimation pressure ([2]; 315.4 K): 3.35 ± 0.51 kPa | vapor or sublimation pressure ([2]; 323 K): 5.31 ± 0.52 kPa | vapor or sublimation pressure ([2]; 331.1 K): 8.41 ± 0.54 kPa | vapor or sublimation pressure ([2]; 339.8 K): 13.33 ± 0.56 kPa | vapor or sublimation pressure ([2]; 349.3 K): 21.13 ± 0.6 kPa | vapor or sublimation pressure ([2]; 359.4 K): 33.49 ± 0.66 kPa | vapor or sublimation pressure ([2]; 370.5 K): 53.08 ± 0.76 kPa | vapor or sublimation pressure ([2]; 382.9 K): 84.13 ± 0.91 kPa | vapor or sublimation pressure ([2]; 388.38 K): 101.32 ± 1 kPa | vapor or sublimation pressure ([2]; 388.7 K): 101.32 ± 1 kPa
